{"source": "paper PMC5218480", "about": "(PLoS ONE, 2017)", "test_system": "MV-4-11 cells", "test": "Gene expression microarray analysis (Affymetrix PrimeView) and GSEA", "format": "cell-based, human", "conditions": "MV-4-11, 48 hours, 1 μM each", "data": [{"molecule": "Nc1ccc(-c2cccs2)cc1NC(=O)c1ccc2c(c1)cc(C1CC1)n2CCN1CCOCC1", "note": "[ACY-1035]", "values": [{"measurement": "genes up-regulated greater than 2-fold relative to vehicle control", "result": 386, "unit": "genes"}]}]}
